Test systems include M14 melanoma; SF-295 CNS; RPMI-8226 leukemia; HL-60(TB) leukemia; SK-MEL-5 melanoma; OVCAR-4 ovarian; A498 renal; HT29 colon; IGROV1 ovarian; HOP-92 NSCLC.
Assay in all cases: NCI anticancer screen, dose series, 48 h

The text below walks through data of PubChem BioAssay (NCI).

“And” between values parts separate entries of the source, which are not always exact repeats. Equal values may be shown once.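 The compound was tested at five concentrations on cells cultured in 96-well plates, with a 48-hour exposure period. Here, GI50 denotes the concentration required for 50% inhibition of growth. TGI: total growth inhibition.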 A value given as a limit tells only on which side of the number the result lay.

For `O=c1cc(-c2ccccc2)oc2c(O)c(O)ccc12`, the GI50 in the assay with M14 melanoma was 9.55 µM; in the assay on SF-295 CNS, 7.8 µM; in the assay with RPMI-8226 leukemia, 4.03 µM; in the assay on HL-60(TB) leukemia, 11.1 µM; in the assay with SK-MEL-5 melanoma, 12.5 µM; in the assay with OVCAR-4 ovarian, 3.73 µM. The GI50 in the assay on A498 renal is 21.5 µM; in the assay on HT29 colon, 35.4 µM; in the assay on IGROV1 ovarian it was 6.99 µM. Besides, the TGI with M14 melanoma is 41.4 µM; in the assay with SF-295 CNS, more than 100 µM; with RPMI-8226 leukemia, 50.9 µM; with HL-60(TB) leukemia, 55.3 µM; in the assay on SK-MEL-5 melanoma, 45.2 µM; in the assay with OVCAR-4 ovarian it was more than 100 µM. The TGI in the assay on A498 renal is more than 100 µM; in the assay with HT29 colon, more than 100 µM; in the assay with IGROV1 ovarian, 47.1 µM.
For `C=C(C)[C@@H]1C/C=C(/COC(C)=O)CC[C@H]2O[C@@]2(C)CC/C=C(\C)CC1`, the GI50 in the assay with M14 melanoma was more than 100 µM; in the assay on SF-295 CNS, more than 100 µM; with RPMI-8226 leukemia, 21.1 µM; in the assay on SK-MEL-5 melanoma, more than 100 µM; with HOP-92 NSCLC it was more than 100 µM; in the assay with OVCAR-4 ovarian, more than 100 µM. The GI50 with A498 renal and in the assay on IGROV1 ovarian was more than 100 µM throughout. For the same compound, the TGI in the assay with M14 melanoma is more than 100 µM; with SF-295 CNS, more than 100 µM; in the assay on RPMI-8226 leukemia it was 44 µM; in the assay with SK-MEL-5 melanoma, more than 100 µM; in the assay with HOP-92 NSCLC, more than 100 µM; with OVCAR-4 ovarian, more than 100 µM. Besides, the TGI in the assay with A498 renal and in the assay on IGROV1 ovarian was more than 100 µM each time.
`Cc1ccccc1SC(/C=C/NNC1=NC(c2ccccc2)C(c2ccccc2)=NN1)c1ccccc1` (stereo unspecified): the TGI is 87.6 µM with M14 melanoma; 57.7 µM with SF-295 CNS; more than 100 µM in the assay on RPMI-8226 leukemia; more than 100 µM in the assay with SK-MEL-5 melanoma; 27.7 µM in the assay with HOP-92 NSCLC; 9.16 µM in the assay with OVCAR-4 ovarian. Besides, the TGI is 64.2 µM in the assay on A498 renal, more than 100 µM in the assay with HT29 colon and 80.2 µM in the assay on IGROV1 ovarian.
Consider `Clc1ccc(-c2nnc(-c3nn(-c4ccccc4)c4nc5ccccc5nc34)o2)cc1`, for which the TGI in the assay on M14 melanoma was more than 100 µM; in the assay on SF-295 CNS, more than 100 µM; in the assay on RPMI-8226 leukemia, more than 100 µM; in the assay on HL-60(TB) leukemia, 80.5 µM; in the assay with SK-MEL-5 melanoma, 32.3 µM; with OVCAR-4 ovarian, more than 100 µM. The TGI with HT29 colon and in the assay with IGROV1 ovarian was more than 100 µM each time.
In the case of `CCCCN(C)CC(C(C)=O)C(c1ccccc1)c1c(O)c2ccccc2oc1=O` (stereo unspecified), the TGI in the assay on M14 melanoma, in the assay with SF-295 CNS, with RPMI-8226 leukemia, with HL-60(TB) leukemia, in the assay on SK-MEL-5 melanoma and in the assay on OVCAR-4 ovarian was more than 100 µM throughout. Also, the TGI in the assay with A498 renal, in the assay on HT29 colon and with IGROV1 ovarian was more than 100 µM in each case.
Turning to `Oc1cccc2cccnc12`, the GI50 in the assay on M14 melanoma was 3.01 µM and 24.2 µM and 2.99 µM; in the assay on RPMI-8226 leukemia, 0.2 µM; with OVCAR-4 ovarian, 6.13 µM and 19.9 µM and 3.37 µM; in the assay on HT29 colon it was 3.53 µM and 13.8 µM and 4.64 µM. The TGI with M14 melanoma is 35.4 µM and > 100 µM; with SF-295 CNS, more than 100 µM; in the assay with RPMI-8226 leukemia, 1.07 µM and 4.31 µM; in the assay with SK-MEL-5 melanoma it was 36.7 µM and 45.2 µM and > 71.7 µM; with HOP-92 NSCLC, more than 100 µM; in the assay on OVCAR-4 ovarian, > 87.6 µM and 83.3 µM and > 100 µM. Besides, the TGI in the assay on A498 renal is 27.7 µM and 56.4 µM and > 100 µM; in the assay with HT29 colon, more than 100 µM; with IGROV1 ovarian, 28.9 µM and 24.4 µM and > 100 µM.
For the compound `Cn1c(=O)nc2n(-c3ccc(F)c(F)c3)c3ccccc3nc-2c1=O`, the TGI with M14 melanoma worked out at 45 µM; in the assay on SF-295 CNS it was 32.4 µM; in the assay with RPMI-8226 leukemia, 72.2 µM; with HL-60(TB) leukemia, 34.9 µM; with SK-MEL-5 melanoma it was 22.5 µM; in the assay with OVCAR-4 ovarian it was 21.1 µM. In addition, the TGI with A498 renal was more than 100 µM; in the assay on HT29 colon, 16 µM; in the assay on IGROV1 ovarian it was 41.4 µM.
As to `O=C(N/N=C/c1ccc([N+](=O)[O-])cc1)c1ccccc1Nc1ccnc(C(F)(F)F)c1`, the GI50 in the assay with M14 melanoma was 19.2 µM; in the assay with SF-295 CNS, 11.2 µM; in the assay with RPMI-8226 leukemia, 1.61 µM; in the assay on HL-60(TB) leukemia, 14.2 µM; in the assay on SK-MEL-5 melanoma, 19.1 µM; in the assay on OVCAR-4 ovarian, 14.2 µM. In addition, the GI50 is 10.5 µM in the assay with A498 renal, 30.7 µM in the assay on HT29 colon and 6.25 µM in the assay on IGROV1 ovarian. Further, the TGI was 58.7 µM with M14 melanoma; 32.4 µM with SF-295 CNS; 14.5 µM with RPMI-8226 leukemia; 47.3 µM in the assay with HL-60(TB) leukemia; 42.3 µM with SK-MEL-5 melanoma; 56.3 µM with OVCAR-4 ovarian. Besides, the TGI in the assay on A498 renal is 43.7 µM; with HT29 colon, more than 100 µM; in the assay on IGROV1 ovarian, 19.2 µM.
For `COc1cccc(C2SC(C)C(=O)N2NC(=O)C(O)c2ccccc2)c1` (stereo unspecified), the GI50 is more than 100 µM in the assay with M14 melanoma; more than 100 µM with SF-295 CNS; more than 100 µM with RPMI-8226 leukemia; more than 100 µM in the assay on SK-MEL-5 melanoma; more than 100 µM with HOP-92 NSCLC; 41.7 µM in the assay with OVCAR-4 ovarian. For the same compound, the GI50 in the assay with A498 renal, in the assay on HT29 colon and in the assay with IGROV1 ovarian was more than 100 µM throughout. Moreover, the TGI with M14 melanoma, in the assay with SF-295 CNS, in the assay on RPMI-8226 leukemia, with SK-MEL-5 melanoma, in the assay with HOP-92 NSCLC and in the assay on OVCAR-4 ovarian was more than 100 µM each time. For the same compound, the TGI in the assay with A498 renal, in the assay on HT29 colon and in the assay on IGROV1 ovarian was more than 100 µM each time.
With `N#Cc1ccc2[nH]cc(Cc3c[nH]c4ccc(C#N)cc34)c2c1`, the GI50 in the assay on M14 melanoma was 10.9 µM; with SF-295 CNS it was 8.84 µM; in the assay on RPMI-8226 leukemia it was 13.9 µM; in the assay on SK-MEL-5 melanoma it was 8.7 µM; with HOP-92 NSCLC, 8.52 µM; in the assay on OVCAR-4 ovarian it was 18.5 µM. The GI50 in the assay with A498 renal was 10.1 µM; with HT29 colon, 18.4 µM; in the assay on IGROV1 ovarian, 12.3 µM. In addition, the TGI with M14 melanoma was 24.3 µM; in the assay with SF-295 CNS, 22.4 µM; in the assay with RPMI-8226 leukemia, 49.7 µM; with SK-MEL-5 melanoma, 17.7 µM; in the assay on HOP-92 NSCLC it was 22.8 µM; in the assay on OVCAR-4 ovarian, more than 50 µM. For the same compound, the TGI in the assay on A498 renal is 22 µM; in the assay on HT29 colon, more than 50 µM; in the assay with IGROV1 ovarian, 35.7 µM.
